Measurements: patent US20250145589A1, “PYRIDINE DERIVATIVE AND USE THEREOF” (SICHUAN HUIYU PHARMACEUTICAL CO., LTD., priority 2021, published 2025)
Read-outs that look alike come from different tables or passages of the source.

Assays:
PI3Kα = PI3Kα (Homo sapiens (Human), UniProt P42336); test: Inhibition of PI3Kα efficacy assay (ADP-Glo kinase assay); format: biochemical; conditions: read-out: PI3Kα inhibitory activity (IC50)
Description: Inhibition of PI3Kα Efficacy assay The ADP-Glo™ kinase assay was used to assess the inhibition of PI3Kα with our compounds. The utilized proteins and assay reagents were obtained from the ADP-Glo™ Kinase Assay Kit (Promega). Initially, a 2 mM stock solution of the test compound (dissolved in DMSO) was serially diluted in five-fold concentrations using DMSO to obtain eight working solutions 1 (200′). […] Subsequently, 2 μL of 2.5×PI and ATP solution mixture were added to each well, mixed, and incubated at RT for 60 minutes. Then, 5 μL of ADP-Glo (containing 10 mM MgCl2) reagent was added to each well, mixed, and incubated at RT for 40 minutes. Finally, 10 μL of the Kinase Detection Reagent was added to each well, mixed, and incubated at RT for 40 minutes. […] Data were analyzed using GraphPad Prism with log(inhibitor) vs. response—Variable Slope(four parameters) fitting calculations for […]. (Note: The negative control refers to the group without inhibitor, and the blank control refers to the group without enzyme.) The data were presented in Tables 1 to 4.

[1] = tested on: NCI-H358 cells (KRAS G12C mutant); test: NCI-H358 cell proliferation inhibition (CellTiter-Glo); format: cell-based; conditions: Homo sapiens, NCI-H358, 72 h; H358 cells (G12C mutation), 3 days, Table 6; read-out: NCI-H358 (IC50)
Description: The CellTiter-Glo®, assay was used to detect the number of viable cells, in order to evaluate the anti-proliferation efficacy of compounds. […] The compounds were serially diluted 5-fold in DMSO to obtain 8 concentrations, and then further diluted with RPMI-640 (10% FBS) cell culture medium to obtain the working solutions (5′), 20 μL of each working solution was added to the cell culture supernatant in each well, and the plate was further incubated for 3 days at 37° C. with 5% CO2. The plate was then equilibrated with CellTiter-Glo® reagent at room temperature (25° C.) for 10-30 minutes. After aspirating 50 μL of the medium, 50 μL of CellTiter-Glo® reagent was added. The cells were thoroughly mixed with the CellTiter-Glo® reagent using a microplate shaker for 2 minutes, and then incubated at room temperature for 10 minutes. The 96-well plate was placed in a multi-mode microplate reader to record the luminescence values (RLU). The inhibition rate was calculated through the following equation: [formula] Data were analyzed using GraphPad Prism for IC50 values (Note: The negative control refers to the group without inhibitor).

PI3Kα, sequence (P42336 whole entry): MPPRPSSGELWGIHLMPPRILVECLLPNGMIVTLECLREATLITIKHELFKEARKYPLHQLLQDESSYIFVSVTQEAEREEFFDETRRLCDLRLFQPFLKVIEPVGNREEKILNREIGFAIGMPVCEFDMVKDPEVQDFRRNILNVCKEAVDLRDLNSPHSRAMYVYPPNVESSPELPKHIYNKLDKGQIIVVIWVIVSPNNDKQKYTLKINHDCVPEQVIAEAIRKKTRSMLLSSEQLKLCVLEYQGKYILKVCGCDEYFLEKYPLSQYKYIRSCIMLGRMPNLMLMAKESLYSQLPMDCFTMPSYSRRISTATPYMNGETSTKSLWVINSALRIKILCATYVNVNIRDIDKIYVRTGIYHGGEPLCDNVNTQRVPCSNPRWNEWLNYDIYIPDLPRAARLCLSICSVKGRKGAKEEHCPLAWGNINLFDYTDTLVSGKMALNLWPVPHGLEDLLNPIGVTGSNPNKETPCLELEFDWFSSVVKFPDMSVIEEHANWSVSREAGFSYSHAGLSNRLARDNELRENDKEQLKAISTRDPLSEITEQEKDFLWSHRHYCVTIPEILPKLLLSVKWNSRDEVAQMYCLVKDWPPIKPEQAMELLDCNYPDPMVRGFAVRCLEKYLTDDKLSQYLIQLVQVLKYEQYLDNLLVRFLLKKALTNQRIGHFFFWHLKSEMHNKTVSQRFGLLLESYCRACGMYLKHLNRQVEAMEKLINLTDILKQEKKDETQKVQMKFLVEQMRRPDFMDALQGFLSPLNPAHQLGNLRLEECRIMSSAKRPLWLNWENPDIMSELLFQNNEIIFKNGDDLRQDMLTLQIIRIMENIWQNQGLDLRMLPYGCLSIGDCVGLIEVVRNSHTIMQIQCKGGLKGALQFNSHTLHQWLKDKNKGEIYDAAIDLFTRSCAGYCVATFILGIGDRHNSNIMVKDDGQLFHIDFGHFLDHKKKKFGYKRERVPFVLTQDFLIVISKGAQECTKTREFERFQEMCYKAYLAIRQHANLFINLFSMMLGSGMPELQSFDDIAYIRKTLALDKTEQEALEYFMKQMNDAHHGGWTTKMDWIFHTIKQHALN
PI3Kα, sequence (P27986 whole entry partner): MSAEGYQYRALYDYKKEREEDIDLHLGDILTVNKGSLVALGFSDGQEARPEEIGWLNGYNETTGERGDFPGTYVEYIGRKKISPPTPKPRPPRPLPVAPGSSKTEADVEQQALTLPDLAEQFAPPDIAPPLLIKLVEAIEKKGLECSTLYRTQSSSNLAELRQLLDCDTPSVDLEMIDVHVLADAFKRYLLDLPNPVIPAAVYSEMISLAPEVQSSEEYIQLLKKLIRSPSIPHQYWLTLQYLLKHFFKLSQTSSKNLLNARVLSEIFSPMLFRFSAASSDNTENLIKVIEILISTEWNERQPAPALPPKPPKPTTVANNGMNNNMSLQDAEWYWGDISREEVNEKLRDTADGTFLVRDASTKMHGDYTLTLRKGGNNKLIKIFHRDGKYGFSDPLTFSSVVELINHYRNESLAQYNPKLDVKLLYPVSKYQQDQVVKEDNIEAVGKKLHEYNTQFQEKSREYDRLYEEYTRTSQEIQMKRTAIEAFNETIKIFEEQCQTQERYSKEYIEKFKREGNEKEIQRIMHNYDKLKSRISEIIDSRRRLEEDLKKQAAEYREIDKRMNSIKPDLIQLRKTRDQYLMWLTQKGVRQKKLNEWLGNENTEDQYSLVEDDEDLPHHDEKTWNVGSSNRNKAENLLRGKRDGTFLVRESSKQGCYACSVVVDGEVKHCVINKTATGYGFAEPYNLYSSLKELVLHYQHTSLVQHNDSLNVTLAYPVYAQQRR

SMILES	IC50 (PI3Kα; Table 2) [nM]	IC50 [1] [nM]	IC50 (PI3Kα; Table 4) [nM]
C=CC(=O)N1CCN(c2ncnc3ccc(-c4cnc(OC)c(NS(=O)(=O)c5c(F)cc(F)cc5F)c4)cc23)CC1 [Example 100, N-(5-(4-(4-acryloylpiperazin-1-yl)quinazolin-6-yl)-2-methoxypyridin-3-yl)-2,4,6-trifluorobenzenesulfonamide]	0.54	155	
CC(=O)/C=C/C(=O)N1CCN(c2ncnc3ccc(-c4cnc(OC5CC5)c(NS(=O)(=O)c5ccc(F)cc5F)c4)cc23)CC1 [Example 110, (E)-N-(2-cyclopropoxy-5-(4-(4-(4-oxopent-2-enoyl)piperazin-1-yl)quinazolin-6-yl)pyridin-3-yl)-2,4-difluorobenzenesulfonamide]	3.5	155	
C=C(F)C(=O)N1CCN(c2ncnc3ccc(-c4cnc(OC)c(NS(=O)(=O)c5c(F)cccc5F)c4)cc23)C[C@@H]1CC#N [Example 115, (S)-N-(5-(4-(3-(cyanomethyl)-4-(2-fluoroacryloyl)piperazin-1-yl)quinazolin-6-yl)-2-methoxypyridin-3-yl)-2,6-difluorobenzenesulfonamide]	1.9	46.5	
C=CC(=O)N1CCN(c2ncnc3ccc(-c4cnc(OC)c(NS(=O)(=O)c5c(F)cccc5F)c4)cc23)C[C@@H]1CC#N [Example 117, (S)-N-(5-(4-(4-acryloyl-3-(cyanomethyl)piperazin-1-yl)quinazolin-6-yl)-2-methoxypyridin-3-yl)-2,6-difluorobenzenesulfonamide]	1.5	37	
COc1ncc(-c2ccc3ncnc(N4CCN(C(=O)/C=C/C(C)=O)CC4)c3c2)cc1NS(=O)(=O)Nc1ccc(F)cc1F [Example 128, N-(2,4-difluorophenyl)[(2-methoxy-5-(4-(4-[(2E)-4-oxopent-2-enoyl]piperazin-1-yl)quinazolin-6-yl)pyridin-3-yl)amino]sulfonamide]	21.7	278	
C=C(F)C(=O)N1CC2(CCN(c3ncnc4ccc(-c5cnc(OC)c(NS(=O)(=O)c6c(F)cc(F)cc6F)c5)cc34)CC2)C1 [Example 140, 2,4,6-trifluoro-N-(5-(4-(2-(2-fluoroacryloyl)-2,7-diazaspiro[3.5]nonan-7-yl)quinazoline-6-yl)-2-methoxypyridin-3-yl)benzenesulfonamide]		7.3	0.43
COc1ncc(-c2ccc3ncnc(N4CC5(CN(C(=O)/C=C/C(C)=O)C5)C4)c3c2)cc1NS(=O)(=O)c1ccc(F)cc1F [Example 141]		80.6	0.3
COc1ncc(-c2ccc3ncnc(N4CC5CC(C4)N5C(=O)/C=C/C(C)=O)c3c2)cc1NS(=O)(=O)c1ccc(F)cc1F [Example 142, (E)-2,4-difluoro-N-(2-methoxy-5-(4-(6-(4-oxopent-2-enoyl)-3,6-diazabicyclo[3.1.1]heptan-3-yl)quinazolin-6-yl)pyridin-3-yl)benzenesulfonamide]		351	0.57
C=C(F)C(=O)N1C2CCC1CN(c1ncnc3ccc(-c4cnc(OC)c(NS(=O)(=O)c5ccc(F)cc5F)c4)cc13)C2 [Example 146, 2,4-difluoro-N-(5-(4-(8-(2-fluoroacryloyl)-3,8-diazabicyclo[3.2.1]octan-3-yl)quinazolin-6-yl)-2-methoxypyridin-3-yl)benzenesulfonamide]		82.1	2.1
C=CC(=O)N1CCC(Nc2ncnc3ccc(-c4cnc(OC)c(NS(=O)(=O)c5ccc(F)cc5F)c4)cc23)C1 (stereo not drawn) [Example 147, N-(5-(4-((1-acryloylpyrrolidin-3-yl)amino)quinazolin-6-yl)-2-methoxypyridin-3-yl)-2,4-difluorobenzenesulfonamide]		790	1.6
COc1ncc(-c2ccc3ncnc(NC4CCN(C(=O)/C=C/C(C)=O)C4)c3c2)cc1NS(=O)(=O)c1ccc(F)cc1F (stereo not drawn) [Example 148, (E)-2,4-difluoro-N-(2-methoxy-5-(4-((1-(4-oxopent-2-enoyl)pyrrolidin-3-yl)amino)quinazolin-6-yl)pyridin-3-yl)benzenesulfonamide]		638	9.2
COc1ncc(-c2ccc3ncnc(N4CC5CCC(C4)N5C(=O)/C=C/C(C)=O)c3c2)cc1NS(=O)(=O)c1ccc(F)cc1 [Example 149, 4-fluoro-N-(2-methoxy-5-(4-(8-((E)-4-oxopent-2-enoyl)-3,8-diazabicyclo[3.2.1]octan-3-yl)quinazolin-6-yl)pyridin-3-yl)benzenesulfonamide]		90.7	3.3
COc1ncc(-c2ccc3ncnc(N4CC5CCC(C4)N5C(=O)/C=C/C(C)=O)c3c2)cc1NS(=O)(=O)c1ccccc1F [Example 151, 2-fluoro-N-(2-methoxy-5-(4-(8-((E)-4-oxopent-2-enoyl)-3,8-diazabicyclo[3.2.1]octan-3-yl)quinazolin-6-yl)pyridin-3-yl)benzenesulfonamide]		80.3	5.9
C=C(F)C(=O)N1C2CCC1CN(c1ncnc3ccc(-c4cnc(OC)c(NS(=O)(=O)c5c(F)cc(F)cc5F)c4)cc13)C2 [Example 156, 2,4,6-trifluoro-N-(5-(4-(8-(2-fluoroacryloyl)-3,8-diazabicyclo[3.2.1]octan-3-yl)quinazolin-6-yl)-2-methoxypyridin-3-yl)benzenesulfonamide]		29.7	0.5
COc1ncc(-c2ccc3ncnc(N4CC5CN(C(=O)/C=C/C(C)=O)CC5C4)c3c2)cc1NS(=O)(=O)c1ccc(F)cc1F (stereo not drawn) [Example 157, (E)-2,4-difluoro-N-(2-methoxy-5-(4-(5-(4-oxopent-2-enoyl)hexahydropyrrolo[3,4-c]pyrrol-2(1H)-yl)quinazolin-6-yl)pyridin-3-yl)benzenesulfonamide]		128	1.3
COc1ncc(-c2ccc3ncnc(N4CC5CCC(C4)N5C(=O)/C=C/C(C)=O)c3c2)cc1NS(=O)(=O)c1c(F)cncc1F [Example 162, 3,5-difluoro-N-(2-methoxy-5-(4-(8-((E)-4-oxopent-2-enoyl)-3,8-diazabicyclo[3.2.1]octan-3-yl)quinazolin-6-yl)pyridin-3-yl)pyridine-4-sulfonamide]		141	2.4
COc1ncc(-c2ccc3ncnc(N4CCC5(CC4)CN(C(=O)/C=C/C(C)=O)C5)c3c2)cc1NS(=O)(=O)c1c(F)cncc1F [Example 163, (E)-3,5-difluoro-N-(2-methoxy-5-(4-(2-(4-oxopent-2-enoyl)-2,7-diazaspiro[3.5]nonan-7-yl)quinazolin-6-yl)pyridin-3-yl)pyridine-4-sulfonamide]		190	0.25
COc1ncc(-c2ccc3ncnc(N4CCN(C(=O)/C=C/C(C)=O)C[C@@H]4C)c3c2)cc1NS(=O)(=O)c1c(F)cncc1F [Example 164, (S,E)-3,5-difluoro-N-(2-methoxy-5-(4-(2-methyl-4-(4-oxopent-2-enoyl)piperazin-1-yl)quinazolin-6-yl)pyridin-3-yl)pyridine-4-sulfonamide]		156	2.8
